According to publication PMC11374673, “Discovery of isoquinoline sulfonamides as allosteric gyrase inhibitors with activity against fluoroquinolone-resistant bacteria” (Nature Chemistry, 2024):
≈ marks a conversion by molar mass, not a printed value. Where “and” joins values, the source holds several entries; their conditions need not be identical. Identical values can stand only once. Entries after “also recorded” stand apart in the source; their conditions may differ. Like-named read-outs stand apart in the source and are kept apart here.

Experiments:
HEK293T = test: Cytotoxicity assay (MTT); format: cell-based, human; conditions: for MTT data (raw readout) / MTT data (raw reading): HEK293T; for IC50: Homo sapiens, HEK-293T, 24 h, MTT
Summary of the method: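 HEK293T cells, maintained at 37 °C and 7% CO2 in Dulbecco’s modified Eagle medium with GlutaMax, antibiotics and serum, were plated in clear 96-well plates in 100 µl medium containing 1% fetal bovine serum and left 24 h to attach. After 24 h compound exposure, MTT (0.40 mg ml^−1) was added for 2 h. Formazan was dissolved in 100 µl DMSO and absorbance measured at 570 nm. Background-corrected IC50 values came from variable-slope non-linear fits.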

HepG2 = test: Cytotoxicity assay (MTT); format: cell-based, human; conditions: for IC50: MTT, 24 h
K. pneumoniae ATCC 29665 = test: MIC by broth microdilution; format: cell-based, Klebsiella pneumoniae; conditions: read-out: MIC K. pneumoniae ATCC 29665
Summary of the method: (§1)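 Broth microdilution in CAMHB: twofold compound series inoculated with 100-fold-diluted bacteria from exponential growth (OD600 0.5, 37 °C); kanamycin 50 µg ml^−1 added for Keio collection strains. Overnight incubation, 37 °C, 600 r.p.m. shaking.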

E. coli W3110 = test: MIC by broth microdilution; format: cell-based, Escherichia coli; conditions: for MIC: broth microdilution, read-out: MIC E. coli W3110; for antimicrobial activity: relative to parent compound
Summary of the method: as §1

[1] = 0.023 uM, experiment n = 1, technical triplicates
[2] = 0.023 uM, experiment n = 2, technical triplicates
[3] = 0.068 uM, experiment n = 1, technical triplicates
[4] = 0.068 uM, experiment n = 2, technical triplicates
[5] = 0.21 uM, experiment n = 1, technical triplicates
[6] = 0.21 uM, experiment n = 2, technical triplicates
[7] = 0.62 uM, experiment n = 1, technical triplicates
[8] = 0.62 uM, experiment n = 2, technical triplicates
[9] = 1.85 uM, experiment n = 1, technical triplicates
[10] = 1.85 uM, experiment n = 2, technical triplicates
[11] = HepG2, 0.023 uM, experiment n = 2, technical triplicates
[12] = HepG2, 0.068 uM, experiment n = 1, technical triplicates
[13] = HepG2, 0.068 uM, experiment n = 2, technical triplicates
[14] = HepG2, 0.21 uM, experiment n = 1, technical triplicates
[15] = HepG2, 0.21 uM, experiment n = 2, technical triplicates
[16] = HepG2, 0.62 uM, experiment n = 1, technical triplicates
[17] = HepG2, 0.62 uM, experiment n = 2, technical triplicates
[18] = HepG2, 1.85 uM, experiment n = 1, technical triplicates
[19] = HepG2, 1.85 uM, experiment n = 2, technical triplicates
[20] = Klebsiella pneumoniae, ATCC29665, broth microdilution

SMILES: O=S(=O)(NC[C@@H]1CC[C@H](c2ccc(-c3ccc(F)nc3)cc2)N1)c1cccc2cnccc12 [Compound 96]
- MTT data (raw readout) (HEK293T; [1]): 1.310 and 1.426 and 1.382
- MTT data (raw readout) (HEK293T; [2]): 1.005 and 1.055 and 0.974
- MTT data (raw readout) (HEK293T; [3]): 1.261 and 1.196 and 1.228
- MTT data (raw readout) (HEK293T; [4]): 1.060 and 1.105 and 1.114
- MTT data (raw readout) (HEK293T; [5]): 1.460 and 1.332 and 1.292
- MTT data (raw readout) (HEK293T; [6]): 0.944 and 1.021 and 1.022
- MTT data (raw readout) (HEK293T; [7]): 1.285 and 1.264 and 1.255
- MTT data (raw readout) (HEK293T; [8]): 0.998 and 0.945 and 0.948
- MTT data (raw readout) (HEK293T; [9]): 1.253 and 1.307 and 1.121
- MTT data (raw readout) (HEK293T; [10]): 0.889 and 0.884 and 0.825
- MTT data (raw readout) (HEK293T; 5.6 uM, experiment n = 1, technical triplicates): 0.992 and 0.906 and 1.276
- MTT data (raw readout) (HEK293T; 5.6 uM, experiment n = 2, technical triplicates): 0.770 and 0.750 and 0.744
- MTT data (raw readout) (HEK293T; 16.7 uM, experiment n = 1, technical triplicates): 0.263 and 0.250 and 0.238
- MTT data (raw readout) (HEK293T; 16.7 uM, experiment n = 2, technical triplicates): 0.552 and 0.449 and 0.479
- MTT data (raw readout) (HEK293T; 50 uM, experiment n = 1, technical triplicates): 0.081 and 0.067 and 0.062
- MTT data (raw readout) (HEK293T; 50 uM, experiment n = 2, technical triplicates): 0.360 and 0.319 and 0.325
- IC50 (HEK293T): 22 µM
- MTT data (raw readout) (HepG2; [11]): 0.335 and 0.356 and 0.336
- MTT data (raw readout) (HepG2; [12]): 0.697 and 0.415 and 0.444
- MTT data (raw readout) (HepG2; [13]): 0.314 and 0.274 and 0.280
- MTT data (raw readout) (HepG2; [14]): 0.410 and 0.391 and 0.401
- MTT data (raw readout) (HepG2; [15]): 0.286 and 0.328 and 0.321
- MTT data (raw readout) (HepG2; [16]): 0.318 and 0.339 and 0.325
- MTT data (raw readout) (HepG2; [17]): 0.277 and 0.335 and 0.337
- MTT data (raw readout) (HepG2; [18]): 0.449 and 0.459 and 0.475
- MTT data (raw readout) (HepG2; [19]): 0.324 and 0.290 and 0.321
- MTT data (raw readout) (HepG2; HepG2, 5.6 uM, experiment n = 1, technical triplicates): 0.376 and 0.380 and 0.428
- MTT data (raw readout) (HepG2; HepG2, 5.6 uM, experiment n = 2, technical triplicates): 0.305 and 0.314 and 0.321
- MTT data (raw readout) (HepG2; HepG2, 16.7 uM, experiment n = 1, technical triplicates): 0.356 and 0.341 and 0.324
- MTT data (raw readout) (HepG2; HepG2, 16.7 uM, experiment n = 2, technical triplicates): 0.281 and 0.283 and 0.288
- MTT data (raw readout) (HepG2; HepG2, 50 uM, experiment n = 1, technical triplicates): 0.302 and 0.347 and 0.370
- MTT data (raw readout) (HepG2; HepG2, 50 uM, experiment n = 2, technical triplicates): 0.208 and 0.219 and 0.229
- IC50 (HepG2; Homo sapiens, HepG2, 24 h): > 100 µM
- IC50 (HepG2): > 50 µM
- MIC (K. pneumoniae ATCC 29665; [20]): 12.5 µM (≈ 5.78 µg/mL)
- MIC (E. coli W3110; Escherichia coli, W3110, WT): 3.1 µM (≈ 1.43 µg/mL)
- antimicrobial activity (E. coli W3110): twofold increase in potency; also recorded: active

SMILES: O=S(=O)(NC[C@H]1CC[C@H](c2ccc(-c3ccc(F)nc3)cc2)N1)c1cccc2cnccc12 [Compound 97]
- MTT data (raw readout) (HEK293T; [1]): 1.365 and 1.275 and 1.431
- MTT data (raw readout) (HEK293T; [2]): 0.941 and 0.907 and 1.040
- MTT data (raw readout) (HEK293T; [3]): 1.367 and 1.278 and 1.395
- MTT data (raw readout) (HEK293T; [4]): 0.968 and 0.952 and 1.040
- MTT data (raw readout) (HEK293T; [5]): 1.452 and 1.196 and 1.181
- MTT data (raw readout) (HEK293T; [6]): 0.930 and 0.987 and 0.817
- MTT data (raw readout) (HEK293T; [7]): 1.160 and 1.204 and 1.255
- MTT data (raw readout) (HEK293T; [8]): 0.874 and 0.902 and 0.863
- MTT data (raw readout) (HEK293T; [9]): 1.307 and 1.173 and 1.284
- MTT data (raw readout) (HEK293T; [10]): 0.763 and 0.774 and 0.841
- IC50 (HEK293T): 39 µM
- MTT data (raw readout) (HepG2; HepG2, 0.023 uM, experiment n = 1, technical triplicates): 0.311 and 0.313 and 0.321
- MTT data (raw readout) (HepG2; [11]): 0.270 and 0.220 and 0.207
- MTT data (raw readout) (HepG2; [12]): 0.289 and 0.307 and 0.326
- MTT data (raw readout) (HepG2; [13]): 0.263 and 0.259 and 0.236
- MTT data (raw readout) (HepG2; [14]): 0.296 and 0.298 and 0.289
- MTT data (raw readout) (HepG2; [15]): 0.257 and 0.247 and 0.226
- MTT data (raw readout) (HepG2; [16]): 0.322 and 0.321 and 0.315
- MTT data (raw readout) (HepG2; [17]): 0.242 and 0.234
- MTT data (raw readout) (HepG2; [18]): 0.327 and 0.348 and 0.347
- MTT data (raw readout) (HepG2; [19]): 0.240 and 0.213
- IC50 (HepG2; Homo sapiens, HepG2, 24 h): > 100 µM
- IC50 (HepG2): > 50 µM
- MIC (K. pneumoniae ATCC 29665; [20]): 25 µM (≈ 11.6 µg/mL)
- MIC (E. coli W3110; Escherichia coli, W3110, WT): 12.5 µM (≈ 5.78 µg/mL)
- antimicrobial activity (E. coli W3110): fourfold less active; also recorded: reduced activity

SMILES: O=S(=O)(NC[C@@H]1CC[C@@H](c2ccc(-c3ccc(F)nc3)cc2)N1)c1cccc2cnccc12 [Compound 98]
- MTT data (raw reading) (HEK293T; 0.023 uM, n = 1): 1.493 and 1.422 and 1.498
- MTT data (raw reading) (HEK293T; 0.023 uM, n = 2): 1.187 and 1.056 and 1.058
- MTT data (raw reading) (HEK293T; 0.068 uM, n = 1): 1.655 and 1.492 and 1.570
- MTT data (raw reading) (HEK293T; 0.068 uM, n = 2): 1.098 and 1.078 and 1.080
- MTT data (raw reading) (HEK293T; 0.21 uM, n = 1): 1.461 and 1.519 and 1.638
- MTT data (raw reading) (HEK293T; 0.21 uM, n = 2): 1.171 and 1.012 and 1.113
- MTT data (raw reading) (HEK293T; 0.62 uM, n = 1): 1.554 and 1.331 and 1.351
- MTT data (raw reading) (HEK293T; 0.62 uM, n = 2): 1.166 and 1.093 and 0.989
- MTT data (raw reading) (HEK293T; 1.85 uM, n = 1): 1.381 and 1.338 and 1.408
- MTT data (raw reading) (HEK293T; 1.85 uM, n = 2): 1.030 and 0.960 and 0.941
- MTT data (raw reading) (HEK293T; 5.6 uM, n = 1): 1.292 and 1.223 and 1.327
- MTT data (raw reading) (HEK293T; 5.6 uM, n = 2): 0.968 and 1.003 and 0.916
- MTT data (raw reading) (HEK293T; 16.7 uM, n = 1): 1.160 and 1.126 and 1.075
- MTT data (raw reading) (HEK293T; 16.7 uM, n = 2): 0.762 and 0.627 and 0.780
- MTT data (raw reading) (HEK293T; 50 uM, n = 1): 0.797 and 0.734
- MTT data (raw reading) (HEK293T; 50 uM, n = 2): 0.478 and 0.528
- IC50 (HEK293T): 49 µM
- MTT data (raw reading) (HepG2; HepG2, 0.023 uM, n = 1): 0.370 and 0.364 and 0.367
- MTT data (raw reading) (HepG2; HepG2, 0.023 uM, n = 2): 0.490 and 0.437 and 0.362
- MTT data (raw reading) (HepG2; HepG2, 0.068 uM, n = 1): 0.458 and 0.420 and 0.439
- MTT data (raw reading) (HepG2; HepG2, 0.068 uM, n = 2): 0.379 and 0.325 and 0.398
- MTT data (raw reading) (HepG2; HepG2, 0.21 uM, n = 1): 0.404 and 0.366 and 0.380
- MTT data (raw reading) (HepG2; HepG2, 0.21 uM, n = 2): 0.373 and 0.308 and 0.356
- MTT data (raw reading) (HepG2; HepG2, 0.62 uM, n = 1): 0.411 and 0.337 and 0.367
- MTT data (raw reading) (HepG2; HepG2, 0.62 uM, n = 2): 0.419 and 0.335 and 0.320
- MTT data (raw reading) (HepG2; HepG2, 1.85 uM, n = 1): 0.394 and 0.411 and 0.409
- MTT data (raw reading) (HepG2; HepG2, 1.85 uM, n = 2): 0.343 and 0.331 and 0.334
- MTT data (raw reading) (HepG2; HepG2, 5.6 uM, n = 1): 0.374 and 0.346 and 0.373
- MTT data (raw reading) (HepG2; HepG2, 5.6 uM, n = 2): 0.307 and 0.313 and 0.306
- MTT data (raw reading) (HepG2; HepG2, 16.7 uM, n = 1): 0.262 and 0.289 and 0.283
- MTT data (raw reading) (HepG2; HepG2, 16.7 uM, n = 2): 0.250 and 0.271 and 0.247
- MTT data (raw reading) (HepG2; HepG2, 50 uM, n = 1): 0.250 and 0.255 and 0.242
- MTT data (raw reading) (HepG2; HepG2, 50 uM, n = 2): 0.199 and 0.179 and 0.169
- IC50 (HepG2; Homo sapiens, HepG2, 24 h): 66 µM
- IC50 (HepG2): > 50 µM
- MIC (K. pneumoniae ATCC 29665; [20]): > 50 µM
- MIC (K. pneumoniae ATCC 29665; broth microdilution): > 50 µM
- MIC (E. coli W3110; Escherichia coli, W3110, WT): > 50 µM
- MIC (E. coli W3110; WT): > 50 µM
- antimicrobial activity (E. coli W3110): completely inactive
